This note sets out measurements from patent EP4563571A1, “PRMT5 INHIBITORS” (Beijing Earthwise Technology Co., Ltd., priority 2022, dated 2024).

Read-outs that look alike come from different tables or passages of the source.

Common to all, as to format: cell-based
One assay relates to HCT116 cells. The assay can be described thus: Anti-proliferation assay on cells (Cell-Titer Glo, 10 days). As to conditions: for Selectivity multiple of HCT116^MTAP WT GI50/ HCT116^MTAP Deletion GI50: ratio of GI50 values. The protocol:
Assay example 1: Method of anti-proliferation assay on cells
HCT116^MTAP Deletion cells were from Pharmaron (China); HCT116 cells were from ATCC; McCoy's 5A medium was purchased from Invitrogen (USA); penicillin-streptomycin and fetal bovine serum were purchased from Gibco (USA); a 384-well plate was purchased from PerkinElmer (USA); and Cell-Titer Glo reagent was purchased from Promega (USA).
Compound dissolution: All the compounds were dissolved in dimethyl sulfoxide (DMSO) and then stored. The compounds were stored at room temperature in a dry condition for 3 months for short term storage or at -20 °C for long term storage.
Cell culture and passaging
The cells were cultured strictly in accordance with ATCC requirements. The cell culture medium (McCoy's 5A medium + 10% fetal bovine serum + 1% penicillin + streptomycin) was transferred to a 15 mL centrifuge tube and centrifuged at 1000 rpm for 5 min. The supernatant was removed. The cells were resuspended with complete culture medium, inoculated into a culture dish at the required density, and cultured in an incubator at 37 °C, 95% humid air, and 5% carbon dioxide. The culture medium was replenished or the cells were passaged every 2-3 days depending on the cell growth condition.
Cell proliferation activity assay
When the confluency of cells in the culture dish reached about 90%, the cells were washed twice with PBS, and then treated with trypsin to become single cells. The cells were counted, and 40µl of the cells was inoculated into each well of a 384-well plate (50 cells/well). The plate was equilibrated at 37 °C and 5% carbon dioxide for 10 to 15 minutes. The compounds were injected into the 384-well plate using Echo550, and positive control and negative control (0.1% DMSO) were set up. Each compound was subjected to a 3-fold dilution, resulting in 10 concentration gradients, in duplicate, and the content of DMSO was 0.1%. The 384-well plate was incubated in a cell culture incubator for 10 days.
Then, 40 µl of cell proliferation assay reagent (CTG) was added to the 384-well plate, and the plate was shaken to mix well. Then, the 384-well plate was incubated at 37 °C and 5% carbon dioxide in the dark for 30 minutes. The data were read using the Envision multifunctional microplate reader. […] According to the different drug concentrations and their corresponding inhibition rates, the GI50 curve was drawn using GraphPad 8.0 software. The data were analyzed, and the final IC50 value was obtained.
In addition, the compounds of the present disclosure also have selectivity for mutant HCT116 cells. […] The selectivity data of representative compounds are shown in Table 2: Table 2 Selectivity data of representative compounds

The subject of assay [1] is SDMA in HCT116^MTAP Deletion. The assay can be described thus: In-Cell Western Assay of cellular SDMA. The settings on record: HCT116^MTAP Deletion cells, 96 hours; read-out: SDMA inhibition IC50 (µM) in HCT116^MTAP Deletion. The protocol:
Compound dissolution: All the compounds were dissolved in dimethyl sulfoxide (DMSO) and then stored. The compounds were stored at -20°C for long term storage.
2.3 Cell culture and passaging
The cells were cultured strictly in accordance with ATCC requirements. […] The supernatant was removed. The cells were resuspended with complete culture medium, inoculated into a culture dish at the required density, and cultured in an incubator at 37 °C, 95% humid air, and 5% carbon dioxide. The culture medium was replenished or the cells were passaged every 2-3 days depending on the cell growth condition.
2.4 In-Cell Western Assay of SDMA
When the confluency of cells in the culture dish reached about 90%, the cells were washed twice with PBS, and then digested with trypsin. 100 µl of the cells was inoculated into each well of a 96-well plate (800 cells/well). The plate was incubated overnight in a 37 °C and 5% CO2 incubator. 50 µL of 3x final concentration of a compound was added to the cell culture plate. Each compound was subjected to a 3-fold dilution, resulting in 10 concentration gradients, in duplicate, and the final concentration of DMSO was 0.5%. The plate was incubated in a 37 °C and 5% CO2 incubator for 96 hours.
150µL of 8% paraformaldehyde was added to each well, and the plate was incubated at room temperature for 15 minutes. The supernatant was discarded. The plate was washed with PBS, and 200µL of freshly prepared 1x Permeabilization buffer was added to each well. The plate was incubated at room temperature for 30 minutes. The supernatant was discarded. 200µL of 1x Blocking buffer was added to each well, and the plate was incubated at room temperature for 2 hours. The supernatant was discarded. 50µL of primary antibody (CST, 1x Incubation buffer 1:500 dilution) was added to each well, and the plate was incubated at 4°C overnight. The supernatant was discarded. 250µL of 1x Washing buffer was added to each well, and the plate was washed three times. 50µL of secondary antibody (IRDye 800CW Goat anti-Rabbit IgG and CellTag 700 dye, 1:800 and 1:500 diluted in Incubation buffer) was added to each well, and the plate was incubated at room temperature for 1 hour. The supernatant was discarded. The plate was washed with 1x Washing buffer. Signals were detected using Licor Odyssey CLX. […] According to the different drug concentrations and their corresponding inhibition rates, the IC50 curve was drawn using GraphPad 8.0 software. The data were analyzed, and the final IC50 value was obtained. […] Table 3 Inhibitory activity on cellular SDMA

In assay [2] the test system is HCT116^MTAP Deletion cells. The assay can be described thus: Anti-proliferation assay on cells (Cell-Titer Glo, 10 days). The essentials: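 HCT116^MTAP Deletion cells seeded at 50 cells/well and exposed to 10-point 3-fold compound dilutions in duplicate (0.1% DMSO) for 10 days at 37 °C. Viability read by CellTiter-Glo luminescence; IC50 derived from GI50 curves of concentration versus inhibition.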

Setting [3] is: HCT116^MTAP Deletion cells, 10 days incubation, CTG readout, read-out: HCT116^MTAP Deletion GI50.
Where [4] appears, read: 240 h, HCT116^MTAP Deletion cells, 10 days incubation, CTG readout, read-out: HCT116^MTAP Deletion GI50.

For `CN(C(=O)C(=O)Nc1cnc(N)c2c1cnn2C)C1COc2cc(-c3ccnn3C)ccc21` (stereo not drawn) [Example 192-P1], the “Selectivity multiple of HCT116^MTAP WT GI50/ HCT116^MTAP Deletion GI50” value (“Selectivity multiple” for short) with HCT116 cells is on record as 252. Further, in assay [1], the IC50 is under 0.01 µM.

For the compound `C[C@H](c1ncccn1)N(Cc1ccc(C(F)(F)F)cn1)C(=O)C(=O)Nc1cnc(N)c2cnn(C)c12` [Example 34], in the assay with HCT116 cells (HCT116 GI50 versus HCT116^MTAP Deletion GI50, text b891), the “selectivity for mutant HCT116 cells” value was “more than 300 times”. In addition, the GI50 in the assay on HCT116 cells (HCT116 cells) is 1000 to 10000 nM; in assay [2] (setting [3]), 100 to 1000 nM; in assay [2] (read-out: GI50 for HCT116^MTAP Deletion), at most 100 nM.

In the case of `CN(C(=O)C(=O)Nc1cnc(N)c2c1cnn2C)C1COCc2c1ccc(C(F)(F)F)c2F` (stereo not drawn) [Example 195], the “Selectivity multiple” value in the assay on HCT116 cells worked out at 226. For the same compound, the concentration for 50% growth inhibition (GI50) in assay [2] (setting [4]) was under 10 nM.

For `C[C@H](c1ncccn1)N(Cc1ccc(C(F)(F)F)cn1)C(=O)C(=O)Nc1cnc(N)c2c1COC2` [Example 2], the GI50 in assay [2] (setting [3]) fell in the range of 10 to 100 nM. Besides, in assay [1], the IC50 was under 0.01 µM.

As to `Cc1ncc(-c2ccc3c(c2)COCC3N(C)C(=O)C(=O)Nc2cnc(N)c3c2cnn3C)s1` (stereo not drawn) [Example 135], the “Selectivity multiple” value with HCT116 cells stood at 285. Further, the 50% growth inhibitory concentration (GI50) in assay [2] (setting [3]) is under 10 nM. The IC50 in assay [1] was under 0.01 µM.

Take `CN(C(=O)C(=O)Nc1cnc(N)c2c1cnn2C)C1COCc2cc(C3=CCOCC3)ccc21` (stereo not drawn) [Example 132-P1]: the “Selectivity multiple” value with HCT116 cells was found to be 266. Besides, the GI50 in assay [2] (setting [3]) was under 10 nM. Besides, the IC50 in assay [1] is under 0.01 µM.

With `CN(C(=O)C(=O)Nc1cnc(N)c2c1cnn2C)C1COCc2cc(C(F)(F)F)c(F)cc21` (stereo not drawn) [Example 167], the “Selectivity multiple” value with HCT116 cells turned out to be 61. Also, in assay [2] (setting [4]), the GI50 is under 10 nM.

Turning to `CN(C(=O)C(=O)Nc1cnc(N)c2c1cnn2C)C1COCc2cc(-c3ccn(C)n3)ccc21` (stereo not drawn) [Example 93], the “Selectivity multiple” value in the assay on HCT116 cells is 244. Also, in assay [2] (setting [4]), the GI50 lay in the range of 10 to 100 nM.

For `Cc1ncccc1-c1ccc2c(c1)COCC2N(C)C(=O)C(=O)Nc1cnc(N)c2c1cnn2C` (stereo not drawn) [Example 201], the “Selectivity multiple” value in the assay on HCT116 cells turned out to be 128. Also, the GI50 in assay [2] (setting [4]) is under 10 nM.

For the compound `CN(C(=O)C(=O)Nc1cnc(N)c2c1cnn2C)C1COCc2cc(-c3cnn(C)c3)ccc21` (stereo not drawn) [Example 124-P1], in the assay with HCT116 cells, the “Selectivity multiple” value came to 215. The GI50 in assay [2] (setting [3]) is under 10 nM.

Take `CN(C(=O)C(=O)Nc1cnc(N)c2c1cnn2C)C1COCc2cc(C3=CCOCC3)ccc21` (stereo not drawn) [Example 100]: the “Selectivity multiple” value with HCT116 cells came to 179. For the same compound, in assay [2] (setting [3]), the GI50 was under 10 nM.

With `Cc1nn(C)c(C)c1-c1ccc2c(c1)COCC2N(C)C(=O)C(=O)Nc1cnc(N)c2c1cnn2C` (stereo not drawn) [Example 178], the “Selectivity multiple” value in the assay with HCT116 cells is 116. Besides, the concentration for 50% growth inhibition (GI50) in assay [2] (setting [4]) is under 10 nM.

`CN(C(=O)C(=O)Nc1cnc(N)c2c1cnn2C)C1COCc2cc(-c3cnn(C)c3)ccc21` (stereo not drawn) [Example 99]: the “Selectivity multiple” value in the assay with HCT116 cells stood at 285. Besides, in assay [2] (setting [3]), the GI50 is under 10 nM.

Take `Cc1ccc(-c2ccc3c(c2)COCC3N(C)C(=O)C(=O)Nc2cnc(N)c3c2cnn3C)cn1` (stereo not drawn) [Example 184]: the “Selectivity multiple” value in the assay on HCT116 cells was 221. Further, in assay [2] (setting [4]), the GI50 was under 10 nM.

With `CCC(C)N(Cc1ccc(-c2ccn(C)n2)cn1)C(=O)C(=O)Nc1cnc(N)c2c1cnn2C` (stereo not drawn) [Example 88], the “Selectivity multiple” value in the assay with HCT116 cells is reported as 161. In addition, the GI50 in assay [2] (setting [4]) was under 10 nM.

For the compound `CN(C(=O)C(=O)Nc1cnc(N)c2c1cnn2C)C1COCc2cc(C3=CCC(F)(F)CC3)ccc21` (stereo not drawn) [Example 157], in the assay on HCT116 cells, the “Selectivity multiple” value worked out at 193. Further, the GI50 in assay [2] (setting [4]) is under 10 nM.

Consider `Cn1ncc2c(NC(=O)C(=O)N(C3CC3)C3COCc4cc(C(F)(F)F)ccc43)cnc(N)c21` (stereo not drawn) [Example 98], for which, in the assay with HCT116 cells, the “Selectivity multiple” value was 106. Also, in assay [2] (setting [4]), the GI50 is under 10 nM.

`CN(C(=O)C(=O)Nc1cnc(N)c2c1cnn2C)C1COc2cc(-c3ccnn3C)ccc21` (stereo not drawn) [Example 161]: the “Selectivity multiple” value with HCT116 cells was found to be 169. Moreover, the GI50 in assay [2] (setting [3]) was under 10 nM.

`Cc1cc(-c2ccc3c(c2)OCC3N(C)C(=O)C(=O)Nc2cnc(N)c3c2cnn3C)on1` (stereo not drawn) [Example 165]: the “Selectivity multiple” value with HCT116 cells is 295. In addition, the GI50 in assay [2] (setting [4]) was 10 to 100 nM.

With `CN(C(=O)C(=O)Nc1cnc(N)c2c1cnn2C)C1COCc2cc(-c3cnc(C4CC4)s3)ccc21` (stereo not drawn) [Example 194], in the assay on HCT116 cells, the “Selectivity multiple” value worked out at 429. Also, the GI50 in assay [2] (setting [4]) is under 10 nM.

As to `CN(C(=O)C(=O)Nc1cnc(N)c2c1cnn2C)C1COCc2cc(C3CC3)ccc21` (stereo not drawn) [Example 104], in the assay on HCT116 cells, the “Selectivity multiple” value worked out at 144. Further, in assay [2] (setting [4]), the GI50 is 10 to 100 nM.

Take `CN(C(=O)C(=O)Nc1cnc(N)c2c1cnn2C)C1COc2cc(C(F)(F)F)ccc21` (stereo not drawn) [Example 89]: the “Selectivity multiple” value with HCT116 cells is 160. For the same compound, in assay [2] (setting [3]), the GI50 is under 10 nM.

For `CN(C(=O)C(=O)Nc1cnc(N)c2c1cnn2C)C1COCc2cc(-c3ccc(C(F)(F)F)nc3)ccc21` (stereo not drawn) [Example 185], the “Selectivity multiple” value in the assay with HCT116 cells was determined as 240. Moreover, in assay [2] (setting [4]), the 50% growth inhibitory concentration (GI50) was under 10 nM.

In the case of `CN(C(=O)C(=O)Nc1cnc(N)c2c1cnn2C)C1COc2cc(-c3cnc(C(F)(F)F)s3)ccc21` (stereo not drawn) [Example 164], the “Selectivity multiple” value in the assay on HCT116 cells is recorded as 337. Moreover, the GI50 in assay [2] (setting [4]) was in the range of 10 to 100 nM.

In the case of `CN(C(=O)C(=O)Nc1cnc(N)c2c1cnn2C)C1COCc2nc(C(F)(F)F)ccc21` (single isomer, unassigned) [Example 152-P2], in assay [2] (setting [3]), the 50% growth inhibitory concentration (GI50) was under 10 nM. Besides, the IC50 in assay [1] fell in the range of 0.01 to 0.1 µM.

As for `CN(C(=O)C(=O)Nc1cnc(N)c2c1cnn2C)C1COCc2cc(-c3ccnn3C)ccc21` (stereo not drawn) [Example 156-P1], the IC50 in assay [1] is under 0.01 µM.

As to `CN(C(=O)C(=O)Nc1cnc(N)c2c1cnn2C)C1COCc2cc(Br)ccc21` (stereo not drawn) [Example 94], the “Selectivity multiple” value in the assay with HCT116 cells is recorded as 144. Besides, the GI50 in assay [2] (setting [4]) was under 10 nM.
